Tests used:
[1] = Pharmacokinetic experiment in mice; format: in vivo; conditions: ICR mice; for AUC(0-t) / Cmax / half-life: male, mouse, single oral administration (PO), 10 mg/kg, plasma
Text: The purpose of this trial is to study the pharmacokinetic behavior of some compounds of the present invention, and the administration method is: Single oral administration (PO) to ICR mice.
The compounds used in this trial are from the compounds in the specific examples of the present invention and the listed positive compounds.
ICR mice male N=9 original source: Shanghai Sippr-Bk Lab Animal Co., Ltd.
The compounds are weighed and dissolved in the corresponding solution (10% PG + 10% Solutol® + 80% pH3 citrate buffer). The mixture is then shaken well and sonicated to prepare a 1 mg/mL stock solution. Nine mice are orally administered at a dose of 10 mg/kg (or IV 2 mg/kg) after an overnight fast.
About 90 µL of blood is collected via the submandibular vein per time point, heparin sodium anticoagulant is added, the sample is placed on ice after collection, and plasma is centrifuged within 1 hour (centrifugation conditions: 8,000 rpm, 6 minutes, 2-8°C). The blood collection timepoints are 0, 0.25, 0.5, 1, 2, 4, 6, 8 and 24 h. The samples are stored in a -20°C refrigerator.
The plasma sample is 40 µL, 160 µL of ice-cold acetonitrile containing internal standard is added, vortexed for 3 minutes, and centrifuged at 11,000 rpm for 5 minutes. 100 µL of the supernatant is taken and added to 100 µL of water, 5 µL of the sample is taken and injected into LC/MS/MS for analysis.

[2] = tested on: Ba/F3 EGFR-DEL19-T790M-C797S (DTC); test: Cell proliferation assay (CellTiter-Glo), Ba/F3 DTC; format: cell-based; conditions: Ba/F3 EGFR-DEL19-T790M-C797S cells, 72 hour incubation, CTG readout; read-out: IC50 BaF3 DTC
Description: (§1) • DMEM Medium (Gibco, Cat#11965118) • RPMI1640 Medium (Gibco, Cat#11875119) • Fetal Bovine Serum (FBS) (GBICO, Cat#10099-141) • CellTiter-Glo® Luminescent Cell Viability Assay Kit (Promega, Cat#G7572) 96-well, Black, Clear Flat Bottom Plate (Corning®, Cat# 3603)
(§2) • SpectraMax Multimode Microplate Reader MD, 2104-0010A; • CO2 Incubator, Thermo Scientific 3100 Series; • Biosafety Cabinet, Thermo Scientific, 1300 Series A2; • Inverted Microscope, Olympus, CKX41SF; • Siemens Refrigerator, KK25E76TI.
(§3) • 1. Cell Culture and Inoculation: • (1) Harvest cells in a logarithmic growth phase and count the cells using a […]. Test cell viability using a trypan blue exclusion method to ensure that cell viability is above 90%. • (2) Adjust the cell concentration to desired final density; and add 90 µL of cell suspension to a 96-well plate. • (3) Incubate the cells overnight at 37°C, under 5% CO2 and 95% humidity in the 96-well plate. • 2. T0 Reference Data: • (1) Add 10 µL PBS to each well of the T0 plate containing cells. • (2) Thaw the CTG reagent and equilibrate the plate to room temperature for 30 minutes. • (3) Add an equal volume of CTG solution to each well. • (4) Lyse cells by shaking on an orbital shaker for 5 minutes. • (5) Leave the plate at room temperature for 20 minutes to stabilize the luminescence signal. • (6) Read the T0 […]. • 3. Compound Dilution and Addition • (1) Add a corresponding volume of DMSO to a corresponding compound powder according to the compound information sheet to prepare a 10 mM stock solution. • (2) Prepare 1000-fold and 3.16-fold diluted compound solutions. • (3) Dilute the 1000× diluted compound solution 100-fold with PBS to prepare a 10-fold compound solution, with a maximum concentration of 10 µM, nine concentrations and 3.16-fold dilution. Then add 10 µL of the drug solution concentration to individual wells of the 96-well plate seeded with cells. Test each compound concentration in triplicate wells, and the final DMSO concentration is 0.1%. • (4) Incubate the cells in the 96-well plate containing the drug compounds at 37°C, under 5% CO2, and 95% humidity for an additional 72 hour period prior to performing the CTG analysis. • 4. Fluorescence Signal Reading • (1) Thaw the CTG reagent and equilibrate the plate to room temperature for 30 minutes. • (2) Add an equal volume of CTG solution to each well. • (3) Lyse cells by shaking on an orbital shaker for 5 minutes. • (4) Leave the plate at room temperature for 20 minutes to stabilize the […]. • (5) Read fluorescence value. • 5. Data Processing
(§4) Analyze the data by using GraphPad Prism 7.0 software, and use Non-linear S-curve regression to fit the dose-response curves, to calculate the IC50 values (in nM). The specific experiment results are presented in Table 1: [formula] Table 1: Biology Test Results

[3] = tested on: Ba/F3 EGFR-L858R-C797S (LC); test: Cell proliferation assay (CellTiter-Glo), Ba/F3 LC; format: cell-based; conditions: Mus musculus, BaF3; Ba/F3 EGFR-L858R-C797S cells, 72 hour incubation, CTG readout
Method in brief: (§5)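 Cells seeded overnight, then exposed 72 h at 37 °C, 5% CO2 to nine 3.16-fold dilutions (top final 10 µM, 0.1% DMSO), triplicate wells. Viability read by CellTiter-Glo luminescence, with a T0 plate read at dosing; IC50 (nM) by non-linear sigmoidal regression.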

[4] = tested on: Ba/F3 EGFR-L858R-T790M-C797S (LTC); test: Cell proliferation assay (CellTiter-Glo), Ba/F3 LTC; format: cell-based; conditions: Mus musculus, BaF3; Ba/F3 EGFR-L858R-T790M-C797S cells, 72 hour incubation, CTG readout
Method in brief: as §5

[5] = tested on: Ba/F3 EGFR-DEL19-C797S (DC); test: Cell proliferation assay (CellTiter-Glo), Ba/F3 DC; format: cell-based; conditions: Mus musculus, BaF3; Ba/F3 EGFR-DEL19-C797S cells, 72 hour incubation, CTG readout
Description: as §1, §2, §3, §4

[6] = tested on: A431 WT; test: Cell proliferation assay (CellTiter-Glo), A431 WT; format: cell-based; conditions: Homo sapiens, A-431; A431 WT cells, 72 hour incubation, CTG readout
Method in brief: as §5

| SMILES | AUC(0-t) [1] [ng·h/mL] | Cmax [1] [ng/mL] | half-life [1] [h] | IC50 [2] [nM] | IC50 [3] [nM] | IC50 [4] [nM] | IC50 [5] [nM] | IC50 [6] [nM] | Oral F ([1]; PO 10 mg/kg (IV 2 mg/kg)) [%] |
| --- | --- | --- | --- | --- | --- | --- | --- | --- | --- |
| CCS(=O)(=O)C[C@H]1CCN(c2nn3c4cc(ncc24)Nc2ccnc(n2)-c2cnn(C)c2OCC2(CCCC2)C3)C1 [Example 35, (S)-3'-(3-((ethylsulfonyl)methyl)pyrrolidin-1-yl)-1'-met hylspiro(cyclopentane-1,6'-8-oxa-3-aza-4(6,1)-pyrazolo [4,3-c]pyridina-2(2,4)-pyrimidina-1(4,5)-pyrazolacyclooctaphane)] | 5570 | 1500 | 2.6 | 0.7 | 2.2 | 1 | 0.9 | 345 | 81.5 |
| C[C@H]1CCOc2c(cnn2C)-c2nccc(n2)Nc2cc3c(cn2)c(-c2ccc(CN4CCN(C)CC4)n2C)nn31 [Positive Compoun d, reference compound] | 204 | 32.7 | 4.8 | 4.2 | 11.5 | 8 | 4.9 | 450 | – |
| Cn1ncc2c1OCC1(CCCC1)Cn1nc(N3CC[C@@H](C(C)(C)O)C3)c3cnc(cc31)Nc1ccnc-2n1 [Example 13, (R)-2-(1-(1'-methylspiro[cyclopentane-1,6'-8-oxa-3-aza-4(6,1)-pyrazolo[4,3-c]pyridina-2(2,4)-pyrimidina-1(4,5)-pyrazolacyclooctaphane]-3'-yl)pyrrolidin-3-yl)propan-2-ol] | 8870 | 1540 | 2.2 | 8.4 | 25.5 | 14.9 | 14.8 | 794 | – |

The remaining molecules from weak to strong by IC50 [2], led by results:

| AUC(0-t) [1] [ng·h/mL] | Cmax [1] [ng/mL] | half-life [1] [h] | IC50 [2] [nM] | IC50 [3] [nM] | IC50 [4] [nM] | IC50 [5] [nM] | IC50 [6] [nM] | Oral F ([1]; PO 10 mg/kg (IV 2 mg/kg)) [%] | SMILES |
| --- | --- | --- | --- | --- | --- | --- | --- | --- | --- |
| 1730 | 412 | 1.3 | 8.7 | 31.6 | 12 | 12.1 | 654 | – | Cn1ncc2c1OCC1(CCCC1)Cn1nc(N3CC[C@H](NC(=O)C4CC4)C3)c3cnc(cc31)Nc1ccnc-2n1 [Example 54, (S)-N-(1-(1'-methylspiro(cyclopentane-1,6'-8-oxa-3-aza-4(6,1)-pyrazolo[4,3-c]pyridina-2(2,4)-pyrimidina-1(4,5) -pyrazolacyclooctaphane)-3' -yl)pyrrolidin-3-yl)cyclopropanecarboxamide] |
| 3920 | 307 | 5.6 | 6.8 | 30.6 | 10.4 | 19.4 | 439 | – | CN1CCC(C#Cc2nn3c4cc(ncc24)Nc2ccnc(n2)-c2cnn(C)c2OCC2(CCCCC2)C3)CC1 [Example 3, 1'-methyl-3'-((1-methylpiperidin-4-yl)ethynyl)spiro(cyclohexane-1,6'-8-oxa-3-aza-4(6,1)-pyrazolo[4,3-c]pyridina-2(2,4)-pyrimidina-1(4,5)-pyrazolacyclooctaphane)] |
| 5320 | 882 | 2.4 | 3.5 | 5 | 3.6 | 2.8 | 1720 | – | Cn1ncc2c1OCC1(CCCC1)Cn1nc(N3CC[C@H](CS(=O)(=O)C(F)(F)F)C3)c3cnc(cc31)Nc1ccnc-2n1 [Example 14, (S)-1'-methyl-3'-(3-(((trifluoromethyl)sulfonyl)methyl)pyrrolidin-1-yl)spiro[cyclopentane-1,6'-8-oxa-3-aza-4(6,1)-pyrazolo[4,3-c]pyridina-2(2,4)-pyrimidina-1(4,5)-pyrazolacyclooctaphane]] |
| 4290 | 1060 | 3 | 2.3 | 1.9 | 1.2 | 3.5 | 593 | – | CCCS(=O)(=O)C[C@H]1CCN(c2nn3c4cc(ncc24)Nc2ccnc(n2)-c2cnn(C)c2OCC2(CCCC2)C3)C1 [Example 42, (S)-3'-(3-((propylsulfonyl)methyl)pyrrolidin-1-yl)-1'-methylspiro(cyclopentane-1 ,6'-8-oxa-3-aza-4(6,1)-pyrazolo[4,3-c]pyridina-2(2,4)-pyrimidina-1(4,5)-pyrazolacyclooctaphane)] |

Source: patent publication EP4563579A1, “MACROCYCLIC EGFR INHIBITOR, AND PREPARATION METHOD THEREFOR AND PHARMACEUTICAL USE THEREOF” (Abbisko Therapeutics Co., Ltd., priority 2022, dated 2024)
